Measurements from PMC5613243 (Chemical Science, 2017).

Target: T1, XiaK (Streptomyces sp. SCSIO 02999, UniProt I3VFC1)
T1 sequence (I3VFC1 1-596): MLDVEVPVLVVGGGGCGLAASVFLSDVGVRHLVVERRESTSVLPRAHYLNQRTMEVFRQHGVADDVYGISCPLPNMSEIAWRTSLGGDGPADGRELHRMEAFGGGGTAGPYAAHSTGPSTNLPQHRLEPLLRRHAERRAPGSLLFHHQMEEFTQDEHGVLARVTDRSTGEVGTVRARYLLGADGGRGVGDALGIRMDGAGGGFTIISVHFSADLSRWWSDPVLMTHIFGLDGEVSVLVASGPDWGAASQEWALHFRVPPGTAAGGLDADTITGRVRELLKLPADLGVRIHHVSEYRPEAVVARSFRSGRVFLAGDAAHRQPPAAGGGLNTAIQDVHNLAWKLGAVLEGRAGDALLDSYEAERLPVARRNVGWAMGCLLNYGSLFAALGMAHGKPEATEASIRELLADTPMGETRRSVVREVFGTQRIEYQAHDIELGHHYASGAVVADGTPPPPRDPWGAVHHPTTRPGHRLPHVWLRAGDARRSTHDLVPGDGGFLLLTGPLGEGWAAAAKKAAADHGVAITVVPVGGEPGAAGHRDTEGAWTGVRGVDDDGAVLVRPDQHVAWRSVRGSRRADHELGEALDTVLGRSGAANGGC
Assay: release of bound flavin by heat denaturation of purified protein
Type: binding
Details: noncovalently bound, co-purified cofactor

Cc1cc2nc3c(=O)[nH]c(=O)nc-3n(C[C@H](O)[C@H](O)[C@H](O)COP(=O)(O)OP(=O)(O)OC[C@H]3O[C@@H](n4cnc5c(N)ncnc54)[C@H](O)[C@@H]3O)c2cc1C [FAD]
release of bound flavin by heat denaturation of purified protein: released the noncovalently-bound flavin adenosine dinucleotide (FAD) cofactor upon heat denaturation
